Experiment: xn = mol fraction of the nth substance listed

CCCC[n+]1ccn(C)c1.[Cl-] + O
Settings | electrical conductivity [S/m] | viscosity [mPa·s]
278.15 K, 100 kPa, x1 = 9.568e-05 | – | 1.532
278.15 K, 100 kPa, x1 = 0.000202 | – | 1.539
278.15 K, 100 kPa, x1 = 0.0003808 | – | 1.545
278.15 K, 100 kPa, x1 = 0.0005628 | – | 1.555
278.15 K, 100 kPa, x1 = 0.0007322 | – | 1.561
278.15 K, 100 kPa, x1 = 0.0009239 | – | 1.57
278.15 K, 100 kPa, x1 = 0.001099 | – | 1.576
278.15 K, 100 kPa, x1 = 0.001363 | – | 1.587
278.15 K, 100 kPa, x1 = 0.001909 | – | 1.608
283.15 K, 100 kPa, x1 = 9.568e-05 | – | 1.314
283.15 K, 100 kPa, x1 = 0.000202 | – | 1.318
283.15 K, 100 kPa, x1 = 0.0003808 | – | 1.325
283.15 K, 100 kPa, x1 = 0.0005628 | – | 1.332
283.15 K, 100 kPa, x1 = 0.0007322 | – | 1.339
283.15 K, 100 kPa, x1 = 0.0009239 | – | 1.348
283.15 K, 100 kPa, x1 = 0.001099 | – | 1.355
283.15 K, 100 kPa, x1 = 0.001363 | – | 1.365
283.15 K, 100 kPa, x1 = 0.001909 | – | 1.377
288.15 K, 100 kPa, x1 = 9.568e-05 | – | 1.146
288.15 K, 100 kPa, x1 = 0.000202 | – | 1.149
288.15 K, 100 kPa, x1 = 0.0003808 | – | 1.155
288.15 K, 100 kPa, x1 = 0.0005628 | – | 1.161
288.15 K, 100 kPa, x1 = 0.0007322 | – | 1.168
288.15 K, 100 kPa, x1 = 0.0009239 | – | 1.178
288.15 K, 100 kPa, x1 = 0.001099 | – | 1.18
288.15 K, 100 kPa, x1 = 0.001363 | – | 1.189
288.15 K, 100 kPa, x1 = 0.001909 | – | 1.198
293.15 K, 100 kPa, x1 = 0.0003808 | – | 1.017
293.15 K, 100 kPa, x1 = 0.0005628 | – | 1.021
293.15 K, 100 kPa, x1 = 0.0007322 | – | 1.027
293.15 K, 100 kPa, x1 = 0.0009239 | – | 1.033
293.15 K, 100 kPa, x1 = 0.001099 | – | 1.036
293.15 K, 100 kPa, x1 = 0.001363 | – | 1.044
293.15 K, 100 kPa, x1 = 0.001909 | – | 1.053
293.15 K, 101 kPa, x2 = 0.4982 | – | 240
293.15 K, 101 kPa, x2 = 0.9502 | – | 2.57
298.15 K, 100 kPa, x1 = 0.000202 | – | 0.9
298.15 K, 100 kPa, x1 = 0.0003808 | – | 0.904
298.15 K, 100 kPa, x1 = 0.0005628 | – | 0.908
298.15 K, 100 kPa, x1 = 0.0007322 | – | 0.913
298.15 K, 100 kPa, x1 = 0.0009239 | – | 0.918
298.15 K, 100 kPa, x1 = 0.001099 | – | 0.922
298.15 K, 100 kPa, x1 = 0.001363 | – | 0.928
298.15 K, 100 kPa, x1 = 0.001909 | – | 0.936
298.15 K, 101 kPa, x1 = 0.009814 | 3.03 | –
298.15 K, 101 kPa, x2 = 0.8034 | 3.08 | 12.6
298.15 K, 101 kPa, x2 = 0.9259 | 6.29 | –
298.15 K, 101 kPa, x2 = 0.9476 | 6.24 | –
298.15 K, 101 kPa, x2 = 0.9647 | 5.76 | –
298.15 K, 101 kPa, x2 = 0.9787 | 4.73 | –
298.15 K, 101.3 kPa, x1 = 8.71e-06 | 0.00583 | –
298.15 K, 101.3 kPa, x1 = 1.208e-05 | 0.00794 | –
298.15 K, 101.3 kPa, x1 = 1.485e-05 | 0.00965 | –
298.15 K, 101.3 kPa, x1 = 1.707e-05 | 0.01101 | –
298.15 K, 101.3 kPa, x1 = 1.937e-05 | 0.01241 | –
298.15 K, 101.3 kPa, x1 = 2.164e-05 | 0.0138 | –
298.15 K, 101.3 kPa, x1 = 2.397e-05 | 0.0152 | –
298.15 K, 101.3 kPa, x1 = 2.6e-05 | 0.0164 | –
298.15 K, 101.3 kPa, x1 = 2.824e-05 | 0.0177 | –
298.15 K, 101.3 kPa, x1 = 3.029e-05 | 0.019 | –
298.15 K, 101.3 kPa, x1 = 0.0009038 | – | 0.911
298.15 K, 101.3 kPa, x1 = 0.000929 | – | 0.908
298.15 K, 101.3 kPa, x1 = 0.001008 | – | 0.919
298.15 K, 101.3 kPa, x1 = 0.001815 | – | 0.928
298.15 K, 101.3 kPa, x1 = 0.00182 | – | 0.935
298.15 K, 101.3 kPa, x1 = 0.001824 | – | 0.928
298.15 K, 101.3 kPa, x1 = 0.003602 | – | 0.971
303.15 K, 100 kPa, x1 = 9.568e-05 | – | 0.803
303.15 K, 100 kPa, x1 = 0.000202 | – | 0.806
303.15 K, 100 kPa, x1 = 0.0003808 | – | 0.81
303.15 K, 100 kPa, x1 = 0.0005628 | – | 0.813
303.15 K, 100 kPa, x1 = 0.0007322 | – | 0.817
303.15 K, 100 kPa, x1 = 0.0009239 | – | 0.82
303.15 K, 100 kPa, x1 = 0.001099 | – | 0.823
303.15 K, 100 kPa, x1 = 0.001363 | – | 0.828
303.15 K, 100 kPa, x1 = 0.001909 | – | 0.837
303.15 K, 101 kPa, x2 = 0.8999 | – | 3.82
308.15 K, 100 kPa, x1 = 9.568e-05 | – | 0.725
308.15 K, 100 kPa, x1 = 0.000202 | – | 0.727
308.15 K, 100 kPa, x1 = 0.0003808 | – | 0.73
308.15 K, 100 kPa, x1 = 0.0005628 | – | 0.733
308.15 K, 100 kPa, x1 = 0.0007322 | – | 0.737
308.15 K, 100 kPa, x1 = 0.0009239 | – | 0.74
308.15 K, 100 kPa, x1 = 0.001099 | – | 0.742
308.15 K, 100 kPa, x1 = 0.001363 | – | 0.746
308.15 K, 100 kPa, x1 = 0.001909 | – | 0.754
308.15 K, 101 kPa, x2 = 0.4982 | – | 92
308.15 K, 101.3 kPa, x1 = 0.0009038 | – | 0.737
308.15 K, 101.3 kPa, x1 = 0.00092 | – | 0.733
308.15 K, 101.3 kPa, x1 = 0.000929 | – | 0.733
308.15 K, 101.3 kPa, x1 = 0.001008 | – | 0.74
308.15 K, 101.3 kPa, x1 = 0.001815 | – | 0.748
308.15 K, 101.3 kPa, x1 = 0.00182 | – | 0.754
308.15 K, 101.3 kPa, x1 = 0.001822 | – | 0.751
308.15 K, 101.3 kPa, x1 = 0.001824 | – | 0.747
310.15 K, 101.3 kPa, x1 = 0.0009038 | – | 0.71
310.15 K, 101.3 kPa, x1 = 0.00092 | – | 0.705
310.15 K, 101.3 kPa, x1 = 0.000929 | – | 0.704
310.15 K, 101.3 kPa, x1 = 0.001008 | – | 0.712
310.15 K, 101.3 kPa, x1 = 0.001815 | – | 0.722
310.15 K, 101.3 kPa, x1 = 0.00182 | – | 0.728
310.15 K, 101.3 kPa, x1 = 0.001822 | – | 0.722
310.15 K, 101.3 kPa, x1 = 0.001824 | – | 0.717
313.15 K, 100 kPa, x1 = 9.568e-05 | – | 0.658
313.15 K, 100 kPa, x1 = 0.000202 | – | 0.66
313.15 K, 100 kPa, x1 = 0.0003808 | – | 0.663
313.15 K, 100 kPa, x1 = 0.0005628 | – | 0.665
313.15 K, 100 kPa, x1 = 0.0007322 | – | 0.668
313.15 K, 100 kPa, x1 = 0.0009239 | – | 0.671
313.15 K, 100 kPa, x1 = 0.001099 | – | 0.673
313.15 K, 100 kPa, x1 = 0.001363 | – | 0.677
313.15 K, 100 kPa, x1 = 0.001909 | – | 0.686
318.15 K, 101.3 kPa, x1 = 0.0009038 | – | 0.613
318.15 K, 101.3 kPa, x1 = 0.00092 | – | 0.608
318.15 K, 101.3 kPa, x1 = 0.000929 | – | 0.607
318.15 K, 101.3 kPa, x1 = 0.001008 | – | 0.615
318.15 K, 101.3 kPa, x1 = 0.001815 | – | 0.624
318.15 K, 101.3 kPa, x1 = 0.00182 | – | 0.625
318.15 K, 101.3 kPa, x1 = 0.001822 | – | 0.623
318.15 K, 101.3 kPa, x1 = 0.001824 | – | 0.618

— the CheMixHub ionic liquid set
